Columns and labels:
[1] = target: T1, glucocorticoid receptor (Homo sapiens, UniProt P04150); assay: Glucocorticoid Receptor Binding Assay (fluorescence polarisation, displacement of Alexa 555 labelled dexamethasone derivative); settings: at least once in this assay; read-out: glucocorticoid binding pIC50 (converted)
T1 construct: a partially purified full length glucocorticoid receptor
T1 sequence (P04150 1-777): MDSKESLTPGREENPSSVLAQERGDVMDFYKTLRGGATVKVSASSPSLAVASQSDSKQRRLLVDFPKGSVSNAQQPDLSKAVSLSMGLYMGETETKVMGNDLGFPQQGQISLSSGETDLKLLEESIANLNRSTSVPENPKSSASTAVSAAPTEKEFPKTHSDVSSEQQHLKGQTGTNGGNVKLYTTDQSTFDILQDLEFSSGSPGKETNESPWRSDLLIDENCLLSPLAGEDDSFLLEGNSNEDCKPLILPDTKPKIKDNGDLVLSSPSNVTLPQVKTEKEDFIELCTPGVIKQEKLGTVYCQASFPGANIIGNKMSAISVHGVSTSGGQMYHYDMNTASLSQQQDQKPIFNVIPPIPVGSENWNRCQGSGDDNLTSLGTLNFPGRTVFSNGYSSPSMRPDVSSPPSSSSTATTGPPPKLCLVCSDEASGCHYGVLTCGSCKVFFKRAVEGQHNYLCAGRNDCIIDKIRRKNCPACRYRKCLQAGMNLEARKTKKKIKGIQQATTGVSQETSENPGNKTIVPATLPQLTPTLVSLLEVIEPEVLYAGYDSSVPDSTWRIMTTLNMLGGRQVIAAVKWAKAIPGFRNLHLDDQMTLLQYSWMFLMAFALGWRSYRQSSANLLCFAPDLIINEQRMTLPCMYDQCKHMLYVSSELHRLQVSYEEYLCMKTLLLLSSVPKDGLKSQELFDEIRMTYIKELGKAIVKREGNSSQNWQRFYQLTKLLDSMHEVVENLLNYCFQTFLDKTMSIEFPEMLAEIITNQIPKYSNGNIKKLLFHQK
Outline: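 Partially purified full-length GR incubated with test compound and fluorescent dexamethasone plus GR-stabilising buffer components, 2 hr at room temperature in the dark. Binding scored as displacement of tracer, read as decrease in fluorescence polarisation.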

[2] = target: T2, GR (Homo sapiens, UniProt P04150); assay: GR Agonist Assay - MMTV Assay (A549 MMTV cells, renilla luciferase reporter); format: cell-based; settings: 6 h, agonists, read-out: average maximum asymptote in the MMTV agonist assay
T2 construct: endogenous in cells; host or cells: A549 (human lung carcinoma, ECACC No. 86012804), stably transfected with reporter plasmids only
T2 sequence (P04150 1-777): T1 sequence (P04150 1-777)
Outline: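 Stably transfected A549 MMTV cells carry a GR-driven luciferase reporter. Cells at 0.1×10^6/ml in DMEM with 10% FCS and 25 mM HEPES were added to wells containing compound. After detection reagent, plates were held about 15 mins at room temperature and luminescence was read.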

[3] = Assay for Brain Penetrance; format: in vivo; settings: brain and plasma, rat, single intravenous dose 1 mg/kg, read-out: brain to plasma ratio
Experimental: Each rat received a single intravenous dose at a level of 1 mg/kg. The dose was formulated in 10% DMSO/50% PEG200/40% sterile water. Terminal blood samples were taken at 5 or 15 mins after dosing, by cardiac puncture following anaesthesia with isofluorane. The brains were removed at the same time point.
The compounds were extracted from 20 μL plasma by protein precipitation using 120 μL acetonitrile containing an analogue compound as an internal standard. The filtered extracts were collected into a 96 well plate and were diluted with an equal volume of 10% acetonitrile containing 0.1% formic acid in water (v/v). The plate was then mixed on a plate shaker for at least 5 mins before analysis by LC-MS/MS against a calibration line prepared in control plasma.
Each brain was weighed, then homogenised in 3 ml acetonitrile:water (10:90v/v). The compounds were extracted from 200 μL of the resulting homogenate by protein precipitation using 600 μL acetonitrile containing an analogue compound as an internal standard. The extracts were centrifuged and 150 μl of each was filtered and transferred to a 96 well plate. The aliquot was diluted with 10% acetonitrile containing 0.1% formic acid in water (v/v). The plate was mixed on a plate shaker for at least 5 mins before analysis by LC-MS/MS against a calibration line prepared in control brain homogenate.

Row | IC50 [1] [nM] | Emax [2] [%] | Kp at 5 min [3] | Structure (SMILES)
1 | < 1000 | ≥ 40 | ≥ 0.1 | Nc1c(C(=O)NCC(O)(CN(CCF)C(=O)c2ccccc2)C(F)(F)F)cnn1-c1ccc(F)cc1 (racemic) [Example 1 (racemic), 5-Amino-1-(4-fluorophenyl)-N-(3,3,3-trifluoro-2-{[(2-fluoroethyl)(phenylcarbonyl)amino]methyl}-2-hydroxypropyl)-1H-pyrazole-4-carboxamide]
2 | < 1000 | ≥ 40 | ≥ 0.1 | Nc1c(C(=O)NCC(O)(CN(CCF)C(=O)c2ccccc2F)C(F)(F)F)cnn1-c1ccc(F)cc1 (racemic) [Example 2 (racemic), 5-Amino-1-(4-fluorophenyl)-N-[3,3,3-trifluoro-2-([(2-fluoroethyl)[(2-fluorophenyl)carbonyl]amino]methyl)-2-hydroxypropyl]-1H-pyrazole-4-carboxamide]
3 | < 1000 | ≥ 40 | ≥ 0.1 | CCN(CC(O)(CNC(=O)c1cnn(-c2ccc(F)cc2)c1N)C(F)(F)F)C(=O)c1cccc(F)c1F (racemic) [Example 5 (racemic), 5-Amino-N-(2-{[[(2,3-difluorophenyl)carbonyl](ethyl)amino]methyl}-3,3,3-trifluoro-2-hydroxypropyl)-1-(4-fluorophenyl)-1H-pyrazole-4-carboxamide]
